Measurements taken from patent US12371432B2, “Haloallylamine compounds and application thereof” (TransThera Sciences (Nanjing), Inc., priority 2019, dated 2025).
Where a name gives a salt, the structure may show the parent alone.

Legend:
rhVAP-1 = target: T1, rhVAP-1 (Homo sapiens, UniProt Q16853); experiment: Inhibitory activity against rhVAP-1 enzyme (Biological Example 2); assay type: biochemical; conditions: Table 2; benzylamine substrate, Amplex Red/HRP
T1 construct: purchased PeproTech
T1 sequence (Q16853 27-763 limits assumed): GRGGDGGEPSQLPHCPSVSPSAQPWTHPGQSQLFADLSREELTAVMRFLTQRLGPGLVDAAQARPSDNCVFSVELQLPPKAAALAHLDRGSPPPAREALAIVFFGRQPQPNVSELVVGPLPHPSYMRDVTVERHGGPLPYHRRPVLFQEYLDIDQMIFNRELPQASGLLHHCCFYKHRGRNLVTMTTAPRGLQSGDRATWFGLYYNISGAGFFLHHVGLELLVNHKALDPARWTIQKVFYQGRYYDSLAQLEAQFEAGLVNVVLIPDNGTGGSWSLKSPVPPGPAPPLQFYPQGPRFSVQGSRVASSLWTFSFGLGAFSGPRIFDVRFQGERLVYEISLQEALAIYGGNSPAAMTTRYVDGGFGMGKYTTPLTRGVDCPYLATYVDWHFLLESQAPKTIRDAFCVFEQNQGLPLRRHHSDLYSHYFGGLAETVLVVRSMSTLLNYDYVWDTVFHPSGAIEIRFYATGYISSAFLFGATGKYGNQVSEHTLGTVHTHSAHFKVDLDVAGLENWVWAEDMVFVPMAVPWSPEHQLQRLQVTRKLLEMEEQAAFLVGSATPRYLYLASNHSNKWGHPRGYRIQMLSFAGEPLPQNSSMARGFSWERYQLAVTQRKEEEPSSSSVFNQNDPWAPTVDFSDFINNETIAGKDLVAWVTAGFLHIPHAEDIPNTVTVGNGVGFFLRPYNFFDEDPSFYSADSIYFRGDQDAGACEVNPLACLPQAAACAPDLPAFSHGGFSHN
In short: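 Enzyme was preincubated 30 min at 37 °C in PBS with a 10-point 3-fold compound dilution series. Benzylamine with Amplex Red/HRP was then added, and fluorescence (ex 580/em 620 nm) was read every 5 min for 30 min. Inhibition was taken from rates versus max wells, and IC50 from a variable-slope fit.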

MAO-B = target: T2, MAO-B (Homo sapiens, UniProt P27338); experiment: Selectivity against MAO-B enzyme (MAO-Glo); assay type: biochemical
T2 construct: purchased Active Motif
T2 sequence (P27338 1-520): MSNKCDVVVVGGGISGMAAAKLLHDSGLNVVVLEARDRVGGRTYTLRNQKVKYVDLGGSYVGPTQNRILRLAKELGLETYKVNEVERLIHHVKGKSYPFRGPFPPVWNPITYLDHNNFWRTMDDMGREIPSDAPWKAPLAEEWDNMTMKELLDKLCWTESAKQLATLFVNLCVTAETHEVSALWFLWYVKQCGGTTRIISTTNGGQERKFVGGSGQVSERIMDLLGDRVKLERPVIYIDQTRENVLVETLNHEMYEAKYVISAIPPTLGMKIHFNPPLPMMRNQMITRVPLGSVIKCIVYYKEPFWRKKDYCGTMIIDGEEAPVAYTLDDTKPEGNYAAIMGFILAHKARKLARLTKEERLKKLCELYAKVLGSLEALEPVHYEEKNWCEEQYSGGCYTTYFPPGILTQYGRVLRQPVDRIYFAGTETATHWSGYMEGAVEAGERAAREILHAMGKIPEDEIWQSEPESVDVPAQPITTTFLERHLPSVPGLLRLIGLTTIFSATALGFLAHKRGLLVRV
Procedure: (1) Instrument, Consumable and Reagent
Microplate reader (Perkin Elmer, EnVision), 384-well plate (Perkin Elmer), centrifuge (Eppendorf), MAO-Glo™ (Promega), MAO-A (Active Motif) and MAO-B (Active Motif).
(2) Preparation of Concentration Gradient Compound Solutions
An appropriate amount of the compound to be tested was taken, dissolved in DMSO to 10 mM and then stored. The solution was then gradiently diluted 4-fold with DMSO, 6 concentration gradients in total.
(3) Preparation of Enzyme Solutions
MAO-A/B mother liquor was diluted with the experimental buffer for MAO-A/B to obtain enzyme solutions of 2× concentrations.
(4) Preparation of Substrate Mixtures of 2× Concentrations
The mother liquor of MAO-A/B substrate mixture was diluted with the experimental buffer for MAO-A/B to obtain substrate mixtures of 2× concentrations.
200 nL compound solutions or solvents of different concentrations and 10 μL MAO-A/B enzyme solutions of 2× concentrations were added into a 384-well plate, centrifuged at 1,000 rpm for 60 s, shaken to be mixed uniformly and then incubated at room temperature for 15 min. 10 μL substrate mixtures of 2× concentrations were then added into each well, and reaction was initiated. The 384-well plate was centrifuged at 1,000 rpm for 60 s, shaken for a uniform mixing and then incubated at room temperature for 60 min. 20 μL of test stop solution was added to stop reaction. Centrifugation was performed at 1,000 rpm for 60 s, and shaking was performed for uniform mixing. After 30 min of standing, the microplate reader was used to perform reading.
The inhibition rate was calculated according to the following formula: Inhibition rate (%)=(Signal_Max-Signal_sample)/(Signal_Max-Signal_min)×100 (6) Fitting of Dose-Response Curve
With the log value of concentration as the X axis and the percent inhibition rate as the Y axis, the log (inhibitor) vs. response-variable slope of analysis software GraphPad Prism 5 was used to fit a dose-response curve, thus obtaining the IC50 value of activity of each compound against the enzyme.

Row | Structure (SMILES) | IC50 (rhVAP-1) | IC50 (MAO-B)
1 | NC/C(=C\F)Cn1cc2c(c1)C(=O)N(C1CC1)CC2 [Compound A22, (E)-2-(2-(aminomethyl)-3-fluoroallyl)-5-cyclopropyl-2,5,6,7-tetrahydro-4H-pyrrolo[3,4-c]pyridin-4-one] | 44 nM | > 100000 nM
2 | Cl.NC/C(=C\F)Cn1cc2c(c1Cl)CCN(C1CC1)C2=O [Compound A42 hydrochloride, (E)-2-(2-(aminomethyl)-3-fluoroallyl)-1-chloro-5-cyclopropyl-2,5,6,7-tetrahydro-4H-pyrrolo[3,4-c]pyridin-4-one] | 17 nM | > 100000 nM
3 | CC(C)(C)N1CCc2nn(C/C(=C/F)CN)cc2C1=O [Compound A7 hydrochloride, (E)-2-(2-(aminomethyl)-3-fluoroallyl)-5-tert-butyl-2,5,6,7-tetrahydro-4H-pyrazolo[4,3-c]pyridin-4-one] | 46 nM | > 100000 nM
4 | CCN1CCc2nn(C/C(=C/F)CN)cc2C1=O [Compound A6 hydrochloride, (E)-2-(2-(aminomethyl)-3-fluoroallyl)-5-ethyl-2,5,6,7-tetrahydro-4H-pyrazolo[4,3-c]pyridin-4-one] | 23 nM | > 100000 nM
5 | Cl.NC/C(=C\F)Cn1cc2c(c1Br)CCN(C1CC1)C2=O [Compound A32 hydrochloride, (E)-2-(2-(aminomethyl)-3-fluoroallyl)-1-bromo-5-cyclopropyl-2,5,6,7-tetrahydro-4H-pyrrolo[3,4-c]pyridin-4-one] | 15 nM | > 100000 nM
6 | NC/C(=C\F)Cn1ncc2c1CCN(C1CC1)C2=O [Compound A2 hydrochloride, (E)-1-(2-(aminomethyl)-3-fluoroallyl)-5-cyclopropyl-1,5,6,7-tetrahydro-4H-pyrazolo[4,3-c]pyridin-4-one] | – | > 100000 nM
7 | CNC(=O)c1cnn(C/C(=C/F)CN)c1 [Compound B1, (E)-1-(2-(aminomethyl)-3-fluoroallyl)-N-methyl-1H-pyrazole-4-carboxamide] | 40 nM | > 100000 nM
8 | CCn1ccc2nn(C/C(=C/F)CN)cc2c1=O [Compound A28 hydrochloride, (E)-2-(2-(aminomethyl)-3-fluoroallyl)-5-ethyl-2,5-dihydro-4H-pyrazolo[4,3-c]pyridin-4-one] | 33 nM | > 100000 nM
9 | NC/C(=C\F)Cn1c(Br)c2c(c1Br)C(=O)N(C1CC1)CC2 [Compound A33 hydrochloride, (E)-2-(2-(aminomethyl)-3-fluoroallyl)-1,3-dibromo-5-cyclopropyl-2,5,6,7-tetrahydro-4H-pyrrolo[3,4-c]pyridin-4-one] | 23 nM | > 100000 nM
10 | NC/C(=C\F)Cn1cc2c(=O)n(C3CC3)ccc2n1 [Compound A41, (E)-2-(2-(aminomethyl)-3-fluoroallyl)-5-cyclopropyl-2,5-dihydro-4H-pyrazolo[4,3-c]pyridin-4-one] | 8 nM | > 100000 nM
11 | Cc1c2c(cn1C/C(=C/F)CN)C(=O)N(C1CC1)CC2 [Compound A35 hydrochloride, (E)-2-(2-(aminomethyl)-3-fluoroallyl)-5-cyclopropyl-1-methyl-2,5,6,7-tetrahydro-4H-pyrrolo[3,4-c]pyridin-4-one] | 24 nM | 92700 nM
12 | CCn1ccc2c(cnn2C/C(=C/F)CN)c1=O [Compound A29 hydrochloride, (E)-1-(2-(aminomethyl)-3-fluoroallyl)-5-ethyl-1,5-dihydro-4H-pyrazolo[4,3-c]pyridin-4-one] | 60 nM | > 100000 nM
13 | CCN1CCc2cn(C/C(=C/F)CN)cc2C1=O [Compound A25, (E)-2-(2-(aminomethyl)-3-fluoroallyl)-5-ethyl-2,5,6,7-tetrahydro-4H-pyrrolo[3,4-c]pyridin-4-one] | 45 nM | > 100000 nM
